# Measurements from PubChem BioAssay AID330 (DTP/NCI, 2004).
# Several values for one entry are separate records, joined by “and”; a condition that tells them apart may be missing. Equal values may be shown once. Toxic doses and inconclusive results are not listed.
# Tested on: P388 leukemia ip, CD2F1 mice, survival T/C
# Experiment: NCI In Vivo Anticancer Drug Screen. Data for tumor model P388 Leukemia (intraperitoneal) in CD2F1 (CDF1) mice
# Settings: endpoint: median survival time, higher = longer survival
# Procedure, shortened: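 Mice carrying the transplanted tumor received test compound or vehicle. Survival was recorded in each group, and the value is the treated-group measurement divided by that of the vehicle-treated control group.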
# [1] = dose: 100.0 mg/kg/injection, schedule: Q04DX003 (ip), vehicle: saline with Tween-80
# [2] = dose: 200.0 mg/kg/injection, schedule: Q04DX003 (ip), vehicle: saline with Tween-80
# [3] = dose: 400.0 mg/kg/injection, schedule: Q04DX003 (ip), vehicle: saline with Tween-80
# [4] = dose: 25.0 mg/kg/injection, schedule: Q01DX005 (ip), vehicle: Klucel (hydroxypropylcellulose) (HPC)
# [5] = dose: 50.0 mg/kg/injection, schedule: Q01DX005 (ip), vehicle: Klucel (hydroxypropylcellulose) (HPC)
# [6] = dose: 100.0 mg/kg/injection, schedule: Q01DX005 (ip), vehicle: Klucel (hydroxypropylcellulose) (HPC)
# [7] = dose: 200.0 mg/kg/injection, schedule: Q01DX005 (ip), vehicle: Klucel (hydroxypropylcellulose) (HPC)
# [8] = dose: 200.0 mg/kg/injection, schedule: Q01DX005 (ip), vehicle: saline with Tween-80
# [9] = dose: 50.0 mg/kg/injection, schedule: Q01DX005 (ip), vehicle: saline with Tween-80
# [10] = dose: 50.0 mg/kg/injection, schedule: Q01DX009 (ip), vehicle: saline with Tween-80
# [11] = dose: 100.0 mg/kg/injection, schedule: Q01DX009 (ip), vehicle: saline with Tween-80
# [12] = dose: 200.0 mg/kg/injection, schedule: Q01DX009 (ip), vehicle: saline with Tween-80
# [13] = dose: 25.0 mg/kg/injection, schedule: Q01DX009 (ip), vehicle: saline with Tween-80
# [14] = dose: 50.0 mg/kg/injection, schedule: Q01DX009 (ip), vehicle: saline
# [15] = dose: 12.5 mg/kg/injection, schedule: Q01DX005 (ip), vehicle: saline with Tween-80
# [16] = dose: 25.0 mg/kg/injection, schedule: Q01DX005 (ip), vehicle: saline with Tween-80
smiles,measurement,setting,value
Cc1[nH]c(=O)[nH]c(=O)c1/C=C/C(=O)NC(CO)CS(=O)Cc1ccccc1 (stereo not given),T/C,"dose: 0.07 mg/kg/injection, schedule: Q01DX009 (ip), vehicle: water",100 % of control
same,T/C,"dose: 0.15 mg/kg/injection, schedule: Q01DX009 (ip), vehicle: water",102 % of control
same,T/C,"dose: 0.3 mg/kg/injection, schedule: Q01DX009 (ip), vehicle: water",100 % of control
same,T/C,"dose: 0.6 mg/kg/injection, schedule: Q01DX009 (ip), vehicle: water",103 % of control
same,T/C,"dose: 2.0 mg/kg/injection, schedule: Q01DX009 (ip), vehicle: other",114 % of control
same,T/C,"dose: 4.0 mg/kg/injection, schedule: Q01DX009 (ip), vehicle: other",118 % of control
same,T/C,"dose: 8.0 mg/kg/injection, schedule: Q01DX009 (ip), vehicle: other",122 % of control
same,T/C,"dose: 16.0 mg/kg/injection, schedule: Q01DX009 (ip), vehicle: other",118 % of control
same,T/C,"dose: 32.0 mg/kg/injection, schedule: Q01DX009 (ip), vehicle: other",99 % of control and 108 % of control
same,T/C,"dose: 64.0 mg/kg/injection, schedule: Q01DX009 (ip), vehicle: other",103 % of control
same,T/C,"dose: 128.0 mg/kg/injection, schedule: Q01DX009 (ip), vehicle: other",98 % of control
same,T/C,"dose: 200.0 mg/kg/injection, schedule: Q01DX009 (ip), vehicle: other",92 % of control
same,T/C,"dose: 256.0 mg/kg/injection, schedule: Q01DX009 (ip), vehicle: other",100 % of control
same,T/C,"dose: 300.0 mg/kg/injection, schedule: Q01DX009 (ip), vehicle: other",90 % of control
same,T/C,"dose: 400.0 mg/kg/injection, schedule: Q01DX009 (ip), vehicle: other",93 % of control
COc1cc2c[n+](C)c(-c3ccc(Cl)c(Cl)c3)c(OC)c2cc1OC,T/C,"dose: 12.5 mg/kg/injection, schedule: Q04DX003 (ip), vehicle: saline",101 % of control
same,T/C,"dose: 25.0 mg/kg/injection, schedule: Q04DX003 (ip), vehicle: saline",100 % of control
same,T/C,"dose: 50.0 mg/kg/injection, schedule: Q04DX003 (ip), vehicle: saline",100 % of control
CCCCCCCC/C=C\CCCCCCCCN1CN=C(N)N(C#N)C1,T/C,[1],101 % of control
same,T/C,[2],100 % of control
same,T/C,[3],103 % of control
NC(=S)c1ncn(C2OC(COC=O)C(OC=O)C2OC=O)c1NC=O (stereo not given),T/C,[4],110 % of control
same,T/C,[5],108 % of control
same,T/C,[6],113 % of control
same,T/C,[7],120 % of control
same,T/C,[8],114 % of control
same,T/C,"dose: 400.0 mg/kg/injection, schedule: Q01DX005 (ip), vehicle: Klucel (hydroxypropylcellulose) (HPC)",100 % of control
same,T/C,"dose: 400.0 mg/kg/injection, schedule: Q01DX005 (ip), vehicle: saline with Tween-80",97 % of control
COC(=O)C1=CO[C@@H](C)[C@@H]2CN3CCc4c([nH]c5ccc(OC)cc45)[C@@H]3C[C@H]12,T/C,[9],106 % of control
same,T/C,"dose: 100.0 mg/kg/injection, schedule: Q01DX005 (ip), vehicle: saline with Tween-80",101 % of control
same,T/C,[8],105 % of control
CCOC(=O)c1ccc(N=NN(C)CC2OC3OC(C)(C)OC3C2OC)cc1 (stereo not given),T/C,"dose: 100.0 mg/kg/injection, schedule: Q04DX002 (ip), vehicle: saline with Tween-80",98 % of control
same,T/C,"dose: 200.0 mg/kg/injection, schedule: Q04DX002 (ip), vehicle: saline with Tween-80",98 % of control
same,T/C,"dose: 400.0 mg/kg/injection, schedule: Q04DX002 (ip), vehicle: saline with Tween-80",102 % of control
CN(C)c1cc(C(=O)O)nc(C(=O)O)c1,T/C,"dose: 25.0 mg/kg/injection, schedule: Q01DX001 (ip), vehicle: Klucel (hydroxypropylcellulose) (HPC)",101 % of control
same,T/C,"dose: 50.0 mg/kg/injection, schedule: Q01DX001 (ip), vehicle: Klucel (hydroxypropylcellulose) (HPC)",107 % of control
same,T/C,"dose: 100.0 mg/kg/injection, schedule: Q01DX001 (ip), vehicle: Klucel (hydroxypropylcellulose) (HPC)",107 % of control and 87 % of control
CCC1COC(Nc2cccc3c2CCCC3)=N1 (stereo not given),T/C,"dose: 100.0 mg/kg/injection, schedule: Q01DX001 (ip), vehicle: saline with Tween-80",95 % of control
same,T/C,"dose: 200.0 mg/kg/injection, schedule: Q01DX001 (ip), vehicle: saline with Tween-80",90 % of control
CCCCCCC(=O)/C=C/c1cccc([N+](=O)[O-])c1,T/C,[10],89 % of control
same,T/C,[11],95 % of control
same,T/C,[12],94 % of control
COc1cc(NCCN(C(C)C)C(C)C)c2ncccc2c1,T/C,"dose: 12.5 mg/kg/injection, schedule: Q01DX005 (ip), vehicle: saline",101 % of control
same,T/C,"dose: 25.0 mg/kg/injection, schedule: Q01DX005 (ip), vehicle: saline",93 % of control
same,T/C,"dose: 50.0 mg/kg/injection, schedule: Q01DX005 (ip), vehicle: saline",90 % of control and 92 % of control
c1cc[c]([GeH][c]2ccccc2)cc1.c1cc[c]([GeH][c]2ccccc2)cc1,T/C,"dose: 12.5 mg/kg/injection, schedule: Q01DX005 (ip), vehicle: Klucel (hydroxypropylcellulose) (HPC)",101 % of control
same,T/C,[4],97 % of control
same,T/C,[5],100 % of control and 101 % of control
same,T/C,[6],99 % of control
same,T/C,[7],100 % of control
COc1cc2c(cc1O)C(=O)CCC=C2,T/C,[10],103 % of control
same,T/C,[11],101 % of control
same,T/C,[12],108 % of control
CCC(C(=O)O)C(=O)O.[NH2-].[NH2-].[Pt+2],T/C,"dose: 50.0 mg/kg/injection, schedule: Q01DX001 (ip), vehicle: saline",152 % of control
same,T/C,"dose: 100.0 mg/kg/injection, schedule: Q01DX001 (ip), vehicle: saline",175 % of control
same,T/C,"dose: 200.0 mg/kg/injection, schedule: Q01DX001 (ip), vehicle: saline",189 % of control and 205 % of control
CN(C)c1nc(N)c(N=O)c(=O)[nH]1,T/C,"dose: 12.5 mg/kg/injection, schedule: Q01DX009 (ip), vehicle: saline with Tween-80",104 % of control
same,T/C,[13],94 % of control
same,T/C,[10],94 % of control
same,T/C,[14],87 % of control
same,T/C,"dose: 50.0 mg/kg/injection, schedule: Q04DX003 (ip), vehicle: saline with Tween-80",94 % of control
same,T/C,[1],93 % of control
Cn1c(O)c(C2=NC(C(=O)O)CS2)c(=O)n(C)c1=O (stereo not given),T/C,"dose: 60.0 mg/kg/injection, schedule: Q01DX005 (ip), vehicle: saline",100 % of control
same,T/C,"dose: 120.0 mg/kg/injection, schedule: Q01DX005 (ip), vehicle: saline",101 % of control
same,T/C,"dose: 240.0 mg/kg/injection, schedule: Q01DX005 (ip), vehicle: saline",101 % of control
N#CC(NCc1ccccc1)c1ccc2c(c1)OCO2 (stereo not given),T/C,[13],90 % of control
CC1=CC(O)C(O)C2(C)C1CC1OC(=O)CC3C(C)C(O)C(=O)C2C13CO (stereo not given),T/C,[15],97 % of control
same,T/C,[16],100 % of control
same,T/C,[9],102 % of control
O=C1c2cc(O)c(O)cc2O[C@H](c2ccc(O)c(O)c2)[C@H]1O,T/C,[11],120 % of control
same,T/C,[1],100 % of control
same,T/C,[12],110 % of control
same,T/C,[2],100 % of control
same,T/C,"dose: 400.0 mg/kg/injection, schedule: Q01DX009 (ip), vehicle: saline with Tween-80",120 % of control
same,T/C,[3],109 % of control
CC1(C)CC(=O)C(C(c2cccc([N+](=O)[O-])c2)C2C(=O)CC(C)(C)CC2=O)C(=O)C1,T/C,[5],96 % of control
same,T/C,[6],98 % of control
same,T/C,[7],102 % of control
C/C(=N/NC(=S)NCc1ccccc1)c1ncccn1,T/C,[15],100 % of control
same,T/C,[16],100 % of control
same,T/C,[9],105 % of control and 98 % of control
N#Cc1c(N)sc(=S)c2ccccc12,T/C,[14],91 % of control
same,T/C,"dose: 100.0 mg/kg/injection, schedule: Q01DX009 (ip), vehicle: saline",104 % of control
same,T/C,"dose: 200.0 mg/kg/injection, schedule: Q01DX009 (ip), vehicle: saline",95 % of control
CC(=O)OC1CC(O)C23COC(O)C1(C)C2CC(O)C1(C)C3C(=O)C(O)C2(C)C(c3ccoc3)CC3OC321 (stereo not given),T/C,"dose: 0.13 mg/kg/injection, schedule: Q01DX009 (ip), vehicle: saline + alcohol",91 % of control
same,T/C,"dose: 0.25 mg/kg/injection, schedule: Q01DX009 (ip), vehicle: saline + alcohol",93 % of control
same,T/C,"dose: 0.5 mg/kg/injection, schedule: Q01DX009 (ip), vehicle: saline + alcohol",90 % of control
same,T/C,"dose: 1.0 mg/kg/injection, schedule: Q01DX009 (ip), vehicle: saline + alcohol",94 % of control
same,T/C,"dose: 1.25 mg/kg/injection, schedule: Q01DX009 (ip), vehicle: Klucel (hydroxypropylcellulose) (HPC)",104 % of control
same,T/C,"dose: 2.5 mg/kg/injection, schedule: Q01DX009 (ip), vehicle: Klucel (hydroxypropylcellulose) (HPC)",95 % of control
